Test results as given in patent US9045415B2, “Targeting of EWS-FLI1 as anti-tumor therapy” (Georgetown University, priority 2006, dated 2015).
Residues, ends and D or L forms follow the SMILES beside them. *: point of attachment. FITC = O=C1OC2(c3ccc(O)cc3Oc3cc(O)ccc32)c2ccc(NC(=S)*)cc21

Experiments:
[1] = test system: neuroblastoma SKNAS cells; assay: Monolayer cell growth, neuroblastoma; format: cell-based; conditions: E9RP 10 μM; seven days
Source text: (§1) FIGS. 8A-E show E9RP inhibits ESFT cell growth. In FIGS. 8A and 8B, E9RP is the peptide region of RHA (SEQ ID NO:29) fused to the Penetratin peptide (from the Antennapedia homeodomain; SEQ ID NO:34) and contains amino-terminal fluorescein (FITC). […] Neither lipids nor electricity were used for transduction of peptides into cells. Confocal microscopy identified peptide throughout cells with nuclear uptake. Nuclear uptake was confirmed by DAPI staining. […] Cell lines were placed in 96-well plates with either vehicle alone (●), or E9RP (10 μM) on days 0, 3 and 5 (▴). No lipid or other transfection method was utilized. This represents two experiments with similar results. FIG. 8D depicts dose response of ESFT 1 to either wild-type or single amino-acid mutant peptides. (▪) wild-type E9RP, (E9R (SEQ ID NO:29) fused to the Penetratin peptide (SEQ ID NO:34)), (▾)(E9RP (P2A peptide (SEQ ID NO:30) fused to the Penetratin peptide (SEQ ID NO:34)), (▴)E9RP (D5A peptide (SEQ ID NO:31) fused to the Penetratin peptide (SEQ ID NO:34)). Growth normalized to treating cells with the 16 aa Antp sequence alone (SEQ ID NO:34). FIG. 8E is a comparison of wild-type versus mutant peptides in ESFT and NB cells.
(§2) In FIG. 13A, recombinant EWS-FLI1 was treated with NSC635437 for 30 minutes. GST-RHA (630-1020) was added and the complexes were then precipitated with antibody to EWS-FLI1 and Protein G beads. Resolved complexes showing the immunoprecipitated complex control without compound are in lanes 3 (0.1% DMSO) and 5 (0.01% DMSO). […] ESFT TC32 (◯) and neuroblastoma SK-N-AS (▪) were grown for 72 hours in the continuous presence of NSC635437. Cells were incubated in MTT reagent for 4 hours and the dried precipitate was dissolved isopropanol and the absorbance read at 570 nm. Each cell line was standardized to the growth of the DMSO control.
(§3) FIG. 30 provides data to show E9R peptide prevents EWS-FLI1 binding to RHA with specific detrimental effects upon ESFT growth and transformation. […] Scale bar equals 20 μm. […] Only expression of EGFP-E9R in TC71 reduced anchorage independent growth. […] Scale bar equals 20 μm.

[2] = biological target: CBP (aa 1680-1890) (Homo sapiens, UniProt Q92793); assay: Competitive ELISA, RHA binding to CBP; conditions: RHA 4 nM, E9RP 0.01-30 μM
Experimental: (§4) E9RP is the peptide region of RHA (E9R; SEQ ID NO: 29) fused to the Penetratin peptide (from the Antennapedia homeodomain; SEQ ID NO: 34). In FIG. 5A, E9RP was used in a competition experiment for blocking binding of RHA to EWS-FLI1. Wells were coated with 500 ng EWS-FLI1. RHA (4 nM) was added on to wells in the presence of E9RP (0.01-30 μM). In FIG. 5B, wells were coated with 500 ng/well recombinant CBP. RHA (4 nM) was added to wells with E9RP (0.01-30 μM).
(§5) E9RP was evaluated for the ability to block RHA from binding to EWS-FLI1 using both competitive ELISA assay and solution immunoprecipitation assays. In addition, specificity of interaction was evaluated by disrupting EWS-FLI1 binding from RHA without interfering with other RHA binding proteins. Creb-binding protein (CBP, p300) is critical to cellular basal transcription, so it was determined if a peptide that would disrupt EWS-FLI1 binding from RHA could also disrupt CBP binding.

[3] = biological target: RHA binding to EWS-FLI1; assay: Solution immunoprecipitation of GST-RHA with recombinant EWS-FLI1; parameters: species or system human
Experimental: E9RP is the peptide region of RHA (E9R; SEQ ID NO: 29) fused to the Penetratin peptide (from the Antennapedia homeodomain; SEQ ID NO: 34). Immunoprecipitation of GST-RHA using recombinant EWS-FLI1 bound to a FLI1 antibody. […] E9RP is the sequence of aa 823-832 of human RHA that were synthesized.
as §2
Protein lysates and immunoprecipitations were performed as previously published (Uren et al (2005)). Recombinant GST-RHA (647-1075) was prepared from crude bacterial extracts without further purification.
Reagents were developed to block RHA binding to EWS-FLI1 since RHA is necessary for optimal EWS-FLI1 activity. The E9R peptide corresponds to amino acids 823 to 832, located in the proximal HA2 region of RHA (FIG. 29A). A cell-free protein interaction assay was developed to test whether E9R peptide inhibits RHA binding to EWS-FLI1. […] It was determined whether disrupted EWS-FLI1/RHA binding inhibited cell growth.

[4] = test system: two additional sarcoma cell lines, lacking EWS-FLI1; assay: Peptide growth inhibition, additional sarcoma cell lines; format: cell-based; conditions: data not shown
[5] = test system: TC32 cells; assay: Monolayer cell growth (MTT or WST), TC32; format: cell-based; conditions: TC32 monolayer, 10 μM
Experimental: as §2, §3
FIG. 33 provides data showing YK-4-279 is potent and specific inhibitor of ESFT. […] Cell number was measured by MTT or WST reduction after seven days in culture. […] FIG. 33D cell lines expressing EWS-FLI1 compared to non-EWS-FLI1 malignant cell lines following 3 days in culture to establish the IC50 using WST assay. […] Graph plots level of fluorescence in treated divided by untreated lysate. […] Scale bar equals 200 μm.

[6] = test system: ESFT cell lines TC32 (ESFT 1) and 5838 (ESFT 2); assay: Peptide growth inhibition, ESFT cell lines 1 and 2; format: cell-based; conditions: 10 μM on days 0, 3 and 5; seven days
Source text: as §1

[7] = biological target: RHA binding to EWS-FLI1; assay: Competitive ELISA, RHA binding to EWS-FLI1; conditions: RHA 4 nM, E9RP 0.01-30 μM; read-out: IC50, prevention of RHA binding to EWS-FLI1
Experimental: as §4, §5

[8] = test system: TC71 (ESFT) cells; assay: Soft-agar anchorage-independent growth, TC71 expressing E9R; format: cell-based
Source text: (§6) Plasmids that express E9R fused to enhanced green fluorescent protein (EGFP) were transfected into either Ewing's Sarcoma (TC71) or rhabdomyosarcoma (RP) cells and placed in soft-agar for anchorage-independent growth. The pGE9R plasmid diffusely expressed E9R while the pGCE9R plasmid contained a nuclear export sequence to prevent expressed peptide from entering the nucleus. The transfected cells were placed in soft agar culture for 2 weeks and stained with MTT. When E9R was diffusely expressed, including the nucleus, ESFT (containing EWS-FLI1) soft-agar colony growth was suppressed.
as §3
Since the Antp peptides added to media would not remain in the cells for 2 weeks during soft-agar colony growth, expression peptides were used to provide continuous exposure to peptide. A pair of expression plasmids with cloning sites downstream of the enhanced green fluorescent protein (EGFP) was obtained; the pG plasmid contained no localizing sequence and was expressed throughout the cells (FIG. 9, left panels). The pGC plasmids contained a nuclear export sequence that blocked peptide transport into the nucleus (FIG. 9, right panels). […]

[9] = test system: SKNAS (neuroblastoma) cells; assay: Soft-agar anchorage-independent growth, SKNAS expressing E9R; format: cell-based; conditions: expressed E9R
Source text: as §3

[10] = test system: ESFT cells TC71; assay: Xenografts of TC71 cells transfected with E9R expression plasmids; format: in vivo, mice; conditions: pGE9R vs pGE9R-D5A, 26 days
Experimental: ESFT cells TC71 were transfected with pGE9R (wild-type sequence peptide (SEQ ID NO: 29)) or pGE9R-D5A (control, mutated peptide; D5A (SEQ ID NO: 31)). In FIG. 10A, fluorescent micrographs of transfected cells after 4 days in culture are presented. […] Bar equals 300 microns. In FIG. 10B, each group contains six mice. Mice legs were measured every 2-3 days. Tumors appeared in 2 weeks. The experiment was terminated after 26 days when the largest tumor caused the mouse to limp. Tumor volumes were calculated according to (D×d2/6)×π formula, where large diameter of tumor mass is D and small diameter is d. 2-way ANOVA analysis, followed by Bonferroni correction for multiple variables, the difference in the two growth curves was highly significant, p=0.016.
The ability of the E9R peptide sequence to prevent ESFT tumorigenesis in a pilot murine xenograft experiment was determined. As a control peptide, the same mutation that prevented wild-type RHA from binding to EWS-FLI1 (D827A, noted in the 10-mer peptide as E9R-D5A) was created. ESFT cells were transfected with either pGE9R or pGE9R-D5A by electroporation. A transfection efficiency of greater than 80% using fluorescent microscopy (FIG. 10A) was observed. […] Every two to three days, each animal's thigh was measured in three dimensions, and tumor volumes were calculated. […]

[11] = test system: EWS-FLI1; assay: SPR displacement assay of E9R from EWS-FLI1; format: binding
Source text: FIG. 31 provides data showing a small molecule binding to EWS-FLI1 and displaces E9R from EWS-FLI1. […] Aromatic functionalization produced YK-4-279 a para-methoxy derivative of NSC635437. […] A FLI1 antibody complexed EWS-FLI1 and precipitated it from the solution.
An aromatic optimization strategy was used to design analogs to improve upon the activity of NSC635437.

[12] = test system: rhabdomyosarcoma cells; assay: Soft-agar anchorage-independent growth, rhabdomyosarcoma cells expressing E9R; format: cell-based; conditions: E9R expression
Source text: as §6
Since the Antp peptides added to media would not remain in the cells for 2 weeks during soft-agar colony growth, expression peptides were used to provide continuous exposure to peptide. A pair of expression plasmids with cloning sites downstream of the enhanced green fluorescent protein (EGFP) was obtained; the pG plasmid contained no localizing sequence and was expressed throughout the cells (FIG. 9, left panels). The pGC plasmids contained a nuclear export sequence that blocked peptide transport into the nucleus (FIG. 9, right panels). The E9R DNA sequence was synthesized and the hybridized oligodeoxynucleotides were inserted into the cloning site downstream of either EGFP or EGFP and nuclear export sequence.

Sequence of CBP (aa 1680-1890) (Q92793 1680-1890): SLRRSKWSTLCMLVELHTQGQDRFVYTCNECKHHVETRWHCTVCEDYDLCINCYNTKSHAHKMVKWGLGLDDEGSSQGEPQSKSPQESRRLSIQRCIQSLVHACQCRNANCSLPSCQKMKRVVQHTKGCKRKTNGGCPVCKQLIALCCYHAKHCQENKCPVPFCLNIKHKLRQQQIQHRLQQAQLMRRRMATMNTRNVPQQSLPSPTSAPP

Compound	cell growth [1]	effect upon the binding of CBP [2]	IC50 ([3]; GST-RHA (630-1020), read-out: IC50 to prevent complex formation)	cell growth [4]	ESFT cell growth with fluorescein conjugated peptides [5]	cell growth [6]	IC50 [7]	reduction of TC71 colony formation ([8]; E9R expressed as EGFP fusion throughout the cell)	soft agar colony growth ([8]; E9R expressed throughout cells (pGE9R))	concentration giving decreased association to 50% ([3]; GST-RHA (647-1075) and full-length EWS-FLI1)	anchorage-independent growth [9]	xenograft growth of cells expressing peptide [10]	binding of E9R to EWS-FLI1 ([11]; 32 μM E9R alone)	binding of E9R to EWS-FLI1 ([11]; 64 μM E9R alone)	soft agar colony growth [12]
CC[C@H](C)[C@H](NC(=O)[C@H](CCCCN)NC(=O)[C@@H](NC(=O)[C@H](CCC(N)=O)NC(=O)[C@H](CCCNC(=N)N)NC(=S)Nc1ccc2c(c1)C(=O)OC21c2ccc(O)cc2Oc2cc(O)ccc21)[C@@H](C)CC)C(=O)N[C@@H](Cc1c[nH]c2ccccc12)C(=O)N[C@@H](Cc1ccccc1)C(=O)N[C@@H](CCC(N)=O)C(=O)N[C@@H](CC(N)=O)C(=O)N[C@@H](CCCNC(=N)N)C(=O)N[C@@H](CCCNC(=N)N)C(=O)N[C@@H](CCSC)C(=O)N[C@@H](CCCCN)C(=O)N[C@@H](Cc1c[nH]c2ccccc12)C(=O)N[C@@H](CCCCN)C(=O)N[C@@H](CCCCN)C(=O)N1CCC[C@H]1C(=O)N1CCC[C@H]1C(=O)N1CCC[C@H]1C(=O)N[C@@H](CC(C)C)C(=O)N[C@@H](CC(=O)O)C(=O)N[C@@H](C)C(=O)N[C@H](C(=O)N[C@H](C(=O)N[C@@H](CCC(=O)O)C(=O)N[C@@H](C)C(=O)O)[C@@H](C)CC)C(C)C [E9RP] ({FITC}-RQIKIWFQNRRMKWKKPPPLDAVIEA-OH; C-terminus assumed)	did not affect the growth	lacking a dose-dependent effect	~100 nM	not growth inhibited	significantly reduced ESFT cell growth	inhibited the growth	~200 nM								
PPPLDAVIEA [E9R, peptide corresponding to aa 823-832 of human RHA]								95%	suppressed	0.1 µM	not affected	reduces ESFT xenografts growth	13 R.U.	17 R.U.	not reduced
